According to patent publication US20200209181A1, “ELECTROCHEMICAL METHOD AND DEVICE FOR DETECTING THE EFFECT OF ANTICANCER DRUGS” (Nano Hesgarsazan Salamat Arya, priority 2016, published 2020):

Columns and labels:
Format in all cases: cell-based, human
MCF-7 cells [1] = assay: Differential pulse voltammetry (DPV) response of MCF-7 cells attached on SiNW-based biosensor after drug treatment; details: for Absolute DPV current peak: about 2 nano-mole per liter MBZ; for Absolute DPV: about 10.5 nano-mole per liter MBZ
Excerpt: For DPV measurement, a derivative of linear sweep voltammetry, with a series of regular voltage pulses superimposed on the potential linear sweep. The current may be sampled twice, just before the pulse application and again, late in the pulse lifetime. The current may be measured immediately before each potential change, then the current difference may be plotted as a function of potential. By sampling the current just before the potential was changed, the effect of the charging current may be decreased. In this example, the effect of Mebendazole (MBZ), which is an antitubulin drug that induces tubulin depolymerization in cancer cells, may be investigated via an exemplary electrochemical method of the present disclosure. The MCF-7 cells attached on SiNWs of an exemplary biosensor of the present disclosure may be treated with different doses of MBZ and the electrochemical response of an individual non-treated (hereinafter “CTRL”) cell and treated cells may be monitored. Accordingly, exemplary MCF-7 cell lines isolated from grade I human breast tumors may be used as cancer cells. The MCF-7 cells may be maintained in a CO2 incubator containing about 5% CO2 and at a temperature of about 37° C. in a RPMI-1640 medium supplemented with a 5% fetal bovine serum, and 1% penicillin/streptomycin. The fresh medium may be replaced every other day. Prior to each experiment, cells may be trypsinized to be detached from the substrate and re-suspended on the SiNW electrodes of an exemplary biosensor of the present disclosure. To minimize the effect of trypsinization, the procedure may be done in less than about 4 minutes at a room temperature of about 20° C. to about 22° C. The biosensor including the attached cells may be held in an incubator for about 4 hours to achieve cells attachment on the SiNWs. Then the MBZ drug with a low concentration (about 2 nano-mole per liter) and with a high concentration (about 10.5 nano-mole per liter) may be added to the cells. […]

MCF-7 cells [2] = assay: Cyclic voltammetry (CV) response of MCF-7 cells attached on SiNW-based biosensor after drug treatment
Excerpt: For CV characterization, three-electrode electrochemical cyclic voltammetry may be performed using the electrochemical workstation. Instead of the system electrodes, the SiNW-based biosensor including integrated SiNW electrodes may be used that is designed and fabricated pursuant to the teachings of the present disclosure. CV assay may be performed between the integrated SiNW covered working electrode 103 and counter electrode 104, with an on chip reference electrode 105 (represented in FIGS. 1 and 5A). The reference electrode may be initially calibrated by an Ag/AgCl reference electrode in a solution of about 1 mM ferrocene carboxylic acid with about 1 mM potassium chloride. CV studies may be performed using DC voltage and applying no AC frequency. For CV data recording, measurements may be carried out at about −0.8 V to 0.8 V at a scan rate of about 100 mv/s. In this example, the effect of Mebendazole (MBZ), which is an antitubulin drug that induces tubulin depolymerization in cancer cells, may be investigated via an exemplary electrochemical method of the present disclosure. The MCF-7 cells attached on SiNWs of an exemplary biosensor of the present disclosure may be treated with different doses of MBZ and the electrochemical response of an individual non-treated (hereinafter “CTRL”) cell and treated cells may be monitored. […]

MCF-7 cells [3] = assay: Cell cycle progression of drug treated MCF-7 cells by flowcytometry analysis
Protocol: Accordingly, exemplary MCF-7 cell lines isolated from grade I human breast tumors may be used as cancer cells. The MCF-7 cells may be maintained in a CO2 incubator containing about 5% CO2 and at a temperature of about 37° C. in a RPMI-1640 medium supplemented with a 5% fetal bovine serum, and 1% penicillin/streptomycin. The fresh medium may be replaced every other day. Prior to each experiment, cells may be trypsinized to be detached from the substrate and re-suspended on the SiNW electrodes of an exemplary biosensor of the present disclosure. To minimize the effect of trypsinization, the procedure may be done in less than about 4 minutes at a room temperature of about 20° C. to about 22° C. The biosensor including the attached cells may be held in an incubator for about 4 hours to achieve cells attachment on the SiNWs. Then the MBZ drug with a low concentration (about 2 nano-mole per liter) and with a high concentration (about 10.5 nano-mole per liter) may be added to the cells. The signal recording and biological assays may be investigated at about 2, 6 and 10 hours after addition of the drug. In addition, cell cycle progression for CTRL and drug treated MCF-7 cells may be determined by flowcytometry analysis that are shown in FIG. 9A (for CTRL cells), FIG. 9B (for treated cells with about 2 nano-mole per liter of MBZ) and FIG. 9C (for treated cells with about 10.5 nano-mole per liter of MBZ). The cell's fractions in apoptotic (part 901), G0/G1 (part 902), S (part 903) and G2/M (part 904) cycles are observable in all of panels. Also, the state of counted cells for each of these three situations is represented at the Right side of the figures. […] But, proportion of G0/G1 fraction (part 902) was changed in MBZ incubated samples. The peak of G0/G1 was about 1300 in CTRL sample (FIG. 9A) meanwhile it was reduced to about 800 in MBZ (about 2 nano-mole per liter) treated cells (FIG. 9B). The result can be confirmed by side scatter versus forward scatter (SSC-FSC) diagram as a strong sign of cells granularity (represented at Right side of FIGS. 9A, 9B and 9C). […] By increasing the dose of MBZ to about 10.5 nM (FIG. 9C), apoptotic behavior (part 901) of the cells was affected. […] Such disorders in the cycle of the cells after MBZ treatment would be well demanded by affected anodic/cathodic response of the cells measured by SiNWs electrodes.

[4] = about 2 nano-mole per liter MBZ

## COC(=O)Nc1nc2ccc(C(=O)c3ccccc3)cc2[nH]1 [MBZ, Mebendazole]
MCF-7 cells [1]; 2 hours after treatment (CTRL about 5 nA)
  Absolute DPV current peak: about 300 nA
MCF-7 cells [1]; about 12 hours after treatment
  Absolute DPV current peak: about 900 nA
MCF-7 cells [1]; 12 hours
  Absolute DPV: about 2000 nA
MCF-7 cells [1]; after 2 hours
  Absolute DPV: about 1400
MCF-7 cells [2]; MBZ about 2 and about 10.5 nano-mole per liter, 2 hours after drug incubation, MCF-7 on SiNW electrodes
  anodic and cathodic spikes in CV diagrams: Both anodic and cathodic spikes may be observed
MCF-7 cells [2]; MBZ dose increased to about 10.5 nano-mole per liter, versus about 2 nano-mole per liter
  height of the CV spikes: increased by nearly three orders
MCF-7 cells [3]; about 10.5 nM MBZ, similar time
  amount of the cells in G0/G1 phase: sharper reduction
MCF-7 cells [3]; [4]
  G2/M fraction relative to CTRL: less than half
  apoptotic behavior of MCF-7 cells: did not induce the apoptotic behavior
MCF-7 cells [3]; about 2 nano-mole per liter MBZ (CTRL about 1300)
  peak of G0/G1: about 800
MCF-7 cells [3]; about 2 nano-mole per liter MBZ, compared with CTRL sample
  apoptotic cells with hypodiploid DNA (subG1 fraction): slightly increased
